Results reported in ChEMBL document CHEMBL3132781, “Biologically active binaphthol-scaffolded imidazolium salts” (Medchemcomm, 2014).
The source made the active and inactive calls. No cut-off for these calls is given here.

Assays:
[1] = Induction of chloride efflux in egg yolk phosphatidylcholine large unilamellar vesicles assessed as increase of lucigenin's fluorescence relative to EYPC; assay type: physicochemical
[2] = test system: Escherichia coli; assay: Antibacterial activity against Escherichia coli DH5[alpha] assessed as complete inhibition of bacterial growth measured upto 24 hrs by broth dilution assay; assay type: functional
[3] = test system: Alcaligenes faecalis; assay: Antibacterial activity against Alcaligenes faecalis ATCC 8750 assessed as complete inhibition of bacterial growth measured upto 24 hrs by broth dilution assay; assay type: functional; conditions: ATCC 8750, 24 h
[4] = test system: Listeria seeligeri; assay: Antibacterial activity against Listeria seeligeri ATCC 35967 assessed as complete inhibition of bacterial growth measured upto 24 hrs by broth dilution assay; assay type: functional; conditions: ATCC 35967, 24 h
[5] = test system: Bacillus thuringiensis; assay: Antibacterial activity against Bacillus thuringiensis HD73 assessed as complete inhibition of bacterial growth measured upto 24 hrs by broth dilution assay; assay type: functional; conditions: HD73, 24 h
[6] = test system: HEK-293T; assay: Cytotoxicity against human HEK293T cells after 24 hrs by MTT assay; assay type: cell-based
[7] = Hemolysis in human erythrocytes upto 100 uM after 1 hr; assay type: ADME, cell-based, Erythrocyte; conditions: read-out: Activity
[8] = test system: Escherichia coli; assay: Antibacterial activity against Escherichia coli DH5[alpha] at 10 uM measured upto 24 hrs by broth dilution assay; assay type: functional, organism-based
[9] = test system: Escherichia coli; assay: Antibacterial activity against Escherichia coli DH5[alpha] at 50 uM measured upto 24 hrs by broth dilution assay; assay type: functional, organism-based
[10] = test system: Escherichia coli; assay: Antibacterial activity against Escherichia coli SK037 with Tn10 insertion inactivated TolC measured at 5 to 10 fold lower MIC within 2 hrs by broth dilution assay; assay type: functional, organism-based
[11] = Hemolysis in human erythrocytes at 3 to 4 uM after 24 hrs; assay type: ADME, cell-based, Erythrocyte; conditions: read-out: Activity
[12] = test system: Escherichia coli; assay: Antibacterial activity against Escherichia coli SK037 with Tn10 insertion inactivated TolC at 10 uM measured upto 24 hrs by broth dilution assay; assay type: functional, organism-based
[13] = test system: Escherichia coli; assay: Antibacterial activity against Escherichia coli SK037 with Tn10 insertion inactivated TolC at 50 uM measured upto 24 hrs by broth dilution assay; assay type: functional, organism-based
[14] = Induction of chloride efflux in egg yolk phosphatidylcholine large unilamellar vesicles assessed as increase of lucigenin's fluorescence at 6.25 %mol relative to EYPC; assay type: physicochemical

SMILES	EC50 [1]	MIC [2] [µM]	MIC [3] [µM]	MIC [4] [µM]	MIC [5] [µM]	IC50 [6] [µM]	hemolysis at 1 h [7] [%]	Activity [8]	Activity [9]	Activity [10]	hemolysis at 24 h, up to 4 µM [11] [%]	Activity [12]	Activity [13]	Activity [14] [%]
C[n+]1ccn(Cc2cc3ccccc3c(-c3c(O)c(Cn4cc[n+](C)c4)cc4ccccc34)c2O)c1.O=S(=O)([N-]S(=O)(=O)C(F)(F)F)C(F)(F)F.O=S(=O)([N-]S(=O)(=O)C(F)(F)F)C(F)(F)F	Not Active	> 100	> 100	> 100	> 100									
CCCCCCCCCCCCCCCC[n+]1ccn(Cc2cc3ccccc3c(-c3c(O)c(Cn4cc[n+](CCCCCCCCCCCCCCCC)c4)cc4ccccc34)c2O)c1.O=S(=O)([N-]S(=O)(=O)C(F)(F)F)C(F)(F)F.O=S(=O)([N-]S(=O)(=O)C(F)(F)F)C(F)(F)F	18.1 %molar	> 100	> 100	> 100	> 100									
CCCCCCCCCCCC[n+]1ccn(Cc2cc3ccccc3c(-c3c(O)c(Cn4cc[n+](CCCCCCCCCCCC)c4)cc4ccccc34)c2O)c1.O=S(=O)([N-]S(=O)(=O)C(F)(F)F)C(F)(F)F.O=S(=O)([N-]S(=O)(=O)C(F)(F)F)C(F)(F)F	9.3 %molar	> 100	> 100	25	100	9.2	< 10							
CCCC[n+]1ccn(Cc2cc3ccccc3c(-c3c(O)c(Cn4cc[n+](CCCC)c4)cc4ccccc34)c2O)c1.O=S(=O)([N-]S(=O)(=O)C(F)(F)F)C(F)(F)F.O=S(=O)([N-]S(=O)(=O)C(F)(F)F)C(F)(F)F	Not Active	> 100	> 100	30	> 100	23.8	< 10	inactive	inactive					
CCCCCCCC[n+]1ccn(Cc2cc3ccccc3c(-c3c(O)c(Cn4cc[n+](CCCCCCCC)c4)cc4ccccc34)c2O)c1.O=S(=O)([N-]S(=O)(=O)C(F)(F)F)C(F)(F)F.O=S(=O)([N-]S(=O)(=O)C(F)(F)F)C(F)(F)F	4.62 %molar	> 100	> 100	3	4	11.7	< 10	inactive	inactive	Active	< 15	Active	Active	68
